In US8940310B2, “Methods of treatment using TLR7 and/or TLR9 inhibitors” (Dynavax Technologies Corporation, priority 2010, dated 2015):
Marks after values point to notes of the source that are not given here.

Experiment: High dosages of IRPs in mice (weight, histology)
Format: in vivo, BALB/c mice
Settings: ISS control (5 mg/kg)
Experimental: To test the activity of IRPs at high dosages in mice, IRPs or a control (saline) were subcutaneously administered to BALB/c mice at a dosage of 4 mg/kg, 20 mg/kg, 50 mg/kg, or 100 mg/kg on days 1, 4, 7, and 10 (n=5 per group). Mice were weighed prior to administration and on days 2, 4, 7, 9, and 11. Serum cytokines were assayed at two hours post the first and third injections and 24 hours post the fourth injection. Organs were harvested at the end of the study, and organ weights and tissues levels of the oligonucleotides were determined. In addition, histological evaluation of the liver, kidney, and heart was performed.
Mice were weighed prior to administration and on days 1, 3, 4, 6, 7, and 9. Organs were harvested at the end of the study, and organ weights and tissues levels of the oligonucleotides were determined. In addition, histological evaluation of the liver, kidney, and heart was performed.

Substance: 5′-TGACTGTGAACGTTCGAGATGA-3′ [SEQ ID NO:157, reference compound]
- Heart: Chronic inflammation, number of animals: 2
- Heart: Mineralization, number of animals: 1
- Heart: Chronic inflammation, mean severity score (0 = no change to 4 = severe): 2.0
- Heart: Mineralization, mean severity score (0 = no change to 4 = severe): 4.0
- Liver: Liver changes, mean severity score (0 = no change to 4 = severe): 2.0
- Liver: Mixed cell infiltration, mean severity score (0 = no change to 4 = severe): 3.0
- Right Kidney: Tubular basophilia, mean severity score (0 = no change to 4 = severe): 2.0
- Liver: Liver changes, number of animals (6 animals): 6
- Liver: Mixed cell infiltration, number of animals (6 animals): 6
- Liver: No significan changes, number of animals (6 animals): 0
- Right Kidney: No significant changes, number of animals (6 animals): 5
- Right Kidney: Tubular basophilia, number of animals (6 animals): 1
- Right Kidney: Tubular changes, number of animals (6 animals): 0
- Heart: No significant changes, number of animals (tissue missing in two animals): 1**
